Tests used:
[1] = Human pharmacokinetic study: anthocyanins in saliva and peripheral blood after topical gel application; assay type: in vivo; details: for Anthocyanin concentration in saliva / Anthocyanin concentration in peripheral blood: 1.0 g 5% FBR Gel, pH 6.5 topical to floor of mouth; for Anthocyanin concentration in saliva: saliva collected 2-5 min after application; for Anthocyanin concentration in peripheral blood: blood drawn five minutes after application
Experimental: Anthocyanin content in sera, saliva, and tissue explants was evaluated by an HPLC-MS assay. The respective samples (sera, saliva or tissue homogenates) were dissolved in 90% solvent A (water plus 1% formic acid) and 10% solvent B (acetonitrile plus 1% formic acid) and then separated on a Symmetry C18 reversed-phase column and analyzed using a Waters 2695 gradient HPLC separation module equipped with a 996 photodiode-array (PDA) UV/visible absorbance detector (Milford, Mass.). The solvent system consisted of a step gradient from 90% A to 50% B over 15 minutes, and the absorption spectra were recorded from 200-800 nm with the inline PDA detector. Mass spectrometry was conducted on a quadrupole ion tunnel mass spectrometer equipped with a Z-spray ESI source. Explant protein levels were determined by the Lowry method, using bovine γ-globulin as the standard protein [Lippman et al., 1993].
Next, evaluation of anthocyanin uptake into human oral mucosa from FBR gels prepared as described in Example 1 was undertaken. For in-vivo studies, participation of human subjects was conducted in accordance with an IRB approved protocol. […] For the phamacokinetic analyses, nine consenting adult volunteers dried the anterior floor of their mouth, placed 1.0 g of 5% berry gel (pH 6.5), and massaged the gel in place for 30 seconds to facilitate uptake. Two minutes after gel application saliva was collected for the next three minutes. Peripheral blood was drawn five minutes after gel application. Following clotting, sera samples were collected, and both the sera and saliva samples were stored at −80° C. until LC-MS analysis as described below.
All nine participants had detectable anthocyanin levels of three anthocyanins (cyanidin 3-rutinoside, cyanidin 3-xylosylrutinoside, cyanidin 3-glucoside) in either their saliva or blood, and 4 donors had detectable levels of two anthocyanins (cyanidin 3-rutinoside and cyanidin 3-xylosylrutinoside) in their peripheral blood. Saliva from eight of the nine donors contained detectable levels of either two (cyanidin 3-rutinoside and cyanidin 3-xylosylrutinoside-4 donors) or three anthocyanins (4 donors).

[2] = test system: Human Oral Mucosa Explant Tissues; assay: Effect of final gel pH on anthocyanin uptake into human oral mucosa explant tissues; assay type: in vitro ADME; details: 10% w/w FBR gel
Experimental: Anthocyanin content in sera, saliva, and tissue explants was evaluated by an HPLC-MS assay. The respective samples (sera, saliva or tissue homogenates) were dissolved in 90% solvent A (water plus 1% formic acid) and 10% solvent B (acetonitrile plus 1% formic acid) and then separated on a Symmetry C18 reversed-phase column and analyzed using a Waters 2695 gradient HPLC separation module equipped with a 996 photodiode-array (PDA) UV/visible absorbance detector (Milford, Mass.). The solvent system consisted of a step gradient from 90% A to 50% B over 15 minutes, and the absorption spectra were recorded from 200-800 nm with the inline PDA detector. Mass spectrometry was conducted on a quadrupole ion tunnel mass spectrometer equipped with a Z-spray ESI source. Explant protein levels were determined by the Lowry method, using bovine γ-globulin as the standard protein [Lippman et al., 1993]. Tissue explants, specifically human oral mucosal explants, were used to determine the in vitro effects of FBR content and pH on anthocyanin uptake. Human oral tissues for the tissue explant studies were obtained from consenting volunteers who were undergoing elective oral surgery procedures. To confirm “no pathologic diagnosis”, a portion of each of these tissues was submitted for light microscopic evaluation. […] Tissues for explant experiments were immediately placed in an artificial saliva transport medium, which also served as the incubation medium for the gel absorption studies. The composition of the artificial saliva used for tissue transport and incubation was (final concentrations): sodium carboxymethylcellulose (0.5%), sorbitol (165 mM), NaCl (14 mM), KCl (16 mM), calcium chloride dehydrate (1.0 mM), MgCl2 (0.63 mM), Trizma hydrochloride (2.0 mM). Tissues from eight donors were used for preliminary studies to compare the penetration of anthocyanins from the 5% berry gel and the 10% FBR gel, both at a final pH of 6.5. In order to account for heterogeneity among human donors, tissue samples were hemisected. One tissue portion treated with 5% and the other with 10% FBR gels. One gram of gel (containing either 5% or 10% w/w FBR) was placed on the epithelial surface of the explant, followed by gently rubbing of the site for 30 seconds to facilitate uptake. Explants were then placed into artificial saliva, incubated for 30 minutes (37° C., 5% CO2), and then frozen at −80° C. until HPLC-mass spectroscopy analyses as previously reported [Rodrigo et al., in press]. Tissue preparation for HPLC analyses consisted of homogenization of the entire oral mucosal specimen, removal of an aliquot for sample protein level determination, followed by the addition of collagenase type II (0.1 mg/mL, GIBCO, Grand Island, N.Y.) and 1% formic acid. Samples were then placed on a Sep Pack (Millipore, Billerica, Mass.), eluted with methanol, and dried under argon gas. Additional oral mucosal explant studies were conducted to compare the effect of FBR gel pH on absorption into oral mucosal explants. Tissues from eleven donors were used for these studies, and handling was as described above with the exception that all gels contained 10% w/w FBR and were formulated at a final pH of 3.5 or 6.5. […] Large differences (up to 15-fold) in detectable anthocyanin levels were found in the gel treated donor tissues; findings that likely reflect the extensive heterogeneity within human tissues that affects tissue penetrative abilities.

[3] = average of eleven explant samples

SMILES: C[C@@H]1O[C@@H](OC[C@H]2O[C@@H](Oc3cc4c(O)cc(O)cc4[o+]c3-c3ccc(O)c(O)c3)[C@H](O)[C@@H](O)[C@@H]2O)[C@H](O)[C@H](O)[C@H]1O [cyanidin 3-rutinoside]
- number of donors with detectable levels in peripheral blood ([1]; of nine participants, 5% berry gel (pH 6.5), five minutes after application): 4 donors
- Anthocyanin concentration in saliva ([1]; patient 101): 3.5 pmol/mL
- Anthocyanin concentration in saliva ([1]; patient 102): 1.7 pmol/mL
- Anthocyanin concentration in peripheral blood ([1]; patient 103): 2.3 pmol/mL
- Anthocyanin concentration in saliva ([1]; patient 104): 4.6 pmol/mL
- Anthocyanin concentration in peripheral blood ([1]; patient 105): 7.4 pmol/mL
- Anthocyanin concentration in saliva ([1]; patient 105): 8.3 pmol/mL
- Anthocyanin concentration in peripheral blood ([1]; patient 106): 5.6 pmol/mL
- Anthocyanin concentration in saliva ([1]; patient 106): 6.1 pmol/mL
- Anthocyanin concentration in peripheral blood ([1]; patient 107): 5.8 pmol/mL
- Anthocyanin concentration in saliva ([1]; patient 107): 9.3 pmol/mL
- Anthocyanin concentration in saliva ([1]; patient 108): 4.2 pmol/mL
- Anthocyanin concentration in saliva ([1]; patient 109): 2.2 pmol/mL
- Anthocyanin uptake, Gel pH 3.5, Avg. ± SEM [2, 3]: 31.9 pmol per mg tissue
- Anthocyanin uptake, Gel pH 6.5, Avg. ± SEM [2, 3]: 113.0 pmol per mg tissue
- % change 3.5 to 6.5, Avg. ± SEM ([2]; average of explant samples): 956.3%
- % change 3.5 to 6.5 ([2]; explant sample 001): 474.1%
- Anthocyanin uptake, Gel pH 3.5 ([2]; explant sample 001): 116.4 pmol per mg tissue
- Anthocyanin uptake, Gel pH 6.5 ([2]; explant sample 001): 668.3 pmol per mg tissue
- % change 3.5 to 6.5 ([2]; explant sample 002): 627.2%
- Anthocyanin uptake, Gel pH 3.5 ([2]; explant sample 002): 9.3 pmol per mg tissue
- Anthocyanin uptake, Gel pH 6.5 ([2]; explant sample 002): 67.8 pmol per mg tissue
- % change 3.5 to 6.5 ([2]; explant sample 003): −14.8%
- Anthocyanin uptake, Gel pH 3.5 ([2]; explant sample 003): 34.3 pmol per mg tissue
- Anthocyanin uptake, Gel pH 6.5 ([2]; explant sample 003): 29.2 pmol per mg tissue
- % change 3.5 to 6.5 ([2]; explant sample 004): −64.4%
- Anthocyanin uptake, Gel pH 3.5 ([2]; explant sample 004): 26.3 pmol per mg tissue
- Anthocyanin uptake, Gel pH 6.5 ([2]; explant sample 004): 9.4 pmol per mg tissue
- % change 3.5 to 6.5 ([2]; explant sample 005): −20.0%
- Anthocyanin uptake, Gel pH 3.5 ([2]; explant sample 005): 3.5 pmol per mg tissue
- Anthocyanin uptake, Gel pH 6.5 ([2]; explant sample 005): 2.8 pmol per mg tissue
- % change 3.5 to 6.5 ([2]; explant sample 006): 362.1%
- Anthocyanin uptake, Gel pH 3.5 ([2]; explant sample 006): 45.7 pmol per mg tissue
- Anthocyanin uptake, Gel pH 6.5 ([2]; explant sample 006): 211.1 pmol per mg tissue
- % change 3.5 to 6.5 ([2]; explant sample 007): 45.1%
- Anthocyanin uptake, Gel pH 3.5 ([2]; explant sample 007): 5.6 pmol per mg tissue
- Anthocyanin uptake, Gel pH 6.5 ([2]; explant sample 007): 8.1 pmol per mg tissue
- % change 3.5 to 6.5 ([2]; explant sample 008): 8905.1%
- Anthocyanin uptake, Gel pH 3.5 ([2]; explant sample 008): 0.4 pmol per mg tissue
- Anthocyanin uptake, Gel pH 6.5 ([2]; explant sample 008): 35.1 pmol per mg tissue
- % change 3.5 to 6.5 ([2]; explant sample 009): 395.1%
- Anthocyanin uptake, Gel pH 3.5 ([2]; explant sample 009): 43.9 pmol per mg tissue
- Anthocyanin uptake, Gel pH 6.5 ([2]; explant sample 009): 207.4 pmol per mg tissue
- % change 3.5 to 6.5 ([2]; explant sample 010): −91.4%
- Anthocyanin uptake, Gel pH 3.5 ([2]; explant sample 010): 37.1 pmol per mg tissue
- Anthocyanin uptake, Gel pH 6.5 ([2]; explant sample 010): 3.2 pmol per mg tissue
- % change 3.5 to 6.5 ([2]; explant sample 011): −98.7%
- Anthocyanin uptake, Gel pH 3.5 ([2]; explant sample 011): 28.7 pmol per mg tissue
- Anthocyanin uptake, Gel pH 6.5 ([2]; explant sample 011): 0.4 pmol per mg tissue

Reference: patent US20100047371A1, “COMPOSITIONS AND METHODS FOR ORAL CANCER CHEMOPREVENTION USING BERRY PREPARATIONS AND EXTRACTS” (priority 2006, published 2010)
